System: Hepatitis C virus genotype 1
Assay: Clinical study of alisporivir/peg-IFNα2a/ribavirin in treatment naïve chronic HCV genotype 1 patients, by IL28B genotype
Type: in vivo, human
From the text: An international, multicentre, randomised, double-blind, placebo-controlled, 4-arm parallel-group multiple dose study comparing three alisporivir/peg-IFNα2a/ribavirin regimens to standard of care treatment in 272 treatment naïve chronic HCV genotype 1 patients is provided.
Patients are randomized into one of 3 treatment arms (A, B and C) as described below in a 1:1:1 ratio. The randomization is stratified by baseline HCV RNA (HCV RNA<800000 IU/mL or HCV RNA≧800000 IU/mL) and BMI (BMI<25 kg/m2 or BMI≧25 kg/m2) at screening.
Alisporivir: 3 capsules of 200 mg (600 mg) alisporivir 2×/day orally for 1 week followed by 3 capsules of 200 mg alisporivir (600 mg) 1×/day for 47 weeks.
Pegylated interferon alfa 2a: 180 μg subcutaneously (s.c.) once weekly for 48 weeks
Ribavirin: 1000 mg/day (<75 kg) or 1200 mg/day (≧75 kg) orally in two divided doses for 48 weeks
Primary efficacy endpoint: proportion of patients achieving SVR 24 (HCV RNA<10 IU/mL at maximum 24 weeks after treatment end).
Genotyping of IL-28B by was carried out using the MALDI-TOF MS (matrix-assisted laser desorption/ionization time-of-flight mass spectrometer) technique which has emerged as a widely applicable method in molecular biology for fast and highly accurate DNA analysis. […]
Frequency of genetic polymorphisms of IL28B was calculated by treatment arm. […]

SMILES: C/C=C/C[C@@H](C)[C@@H](O)[C@H]1C(=O)N[C@@H](CC)C(=O)N(C)[C@H](C)C(=O)N(CC)[C@@H](C(C)C)C(=O)N[C@@H](C(C)C)C(=O)N(C)[C@@H](CC(C)C)C(=O)N[C@@H](C)C(=O)N[C@H](C)C(=O)N(C)[C@@H](CC(C)C)C(=O)N(C)[C@@H](CC(C)C)C(=O)N(C)[C@@H](C(C)C)C(=O)N1C [alisporivir, Alisporivir]
- treatment results of chronic Hepatitis C virus genotype 1 infection (patient with IL28B nonC/C genotype): particularly satisfactory treatment results
- treatment of HCV (patients with IL28B C/C genotype): can also be used effectively

Reference: patent publication US20150139950A1, “ALISPORIVIR TO TREAT HEPATITIS C VIRUS INFECTION” (Novartis AG, priority 2011, published 2015)
